The source of these data is PubChem BioAssay AID1259418 (Broad Institute, 2018).

What is called AC50 is the midpoint of the concentration-response curve, whichever way the signal moves.

SMILES strings stand for the structures. “And” between values parts separate entries of the source, which are not always exact repeats. Equal entries are not always repeated. Results filed as inconclusive are left out. The source made the active and inactive calls.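 The calls were made as follows: active = fitted half-maximal concentration of signal decrease at or below twice the sample's top tested concentration; inconclusive = flat curve between -70 and -30 percent, or poor fit; inactive = flat within 30 percent, signal rise, or potency above limit.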 A value given as a limit tells only on which side of the number the result lay.

The target in the test is T. gondii ME49Luc in IFN-y HeLa, luciferase, 72 h. Description: inhibitors of Toxoplasma growth in IFN-γ-primed HeLa – cell-based, ME49Luc, luciferase, 72 h, dose response (AID 1259418).
On to `CCOc1ccc(-c2nc(CN3CCN(C(=O)Nc4cccc(Cl)c4)CC3)c(C)o2)cc1`, for which the AC50 was 17.1 µM.
Take `Cc1ccc(-c2nc(Cn3c(=O)c4c(C)cc(C)nc4n(-c4ccccc4)c3=O)c(C)o2)cc1`: the AC50 was 30.9 µM.
For `CCOc1ccccc1N(Cc1nc(-c2ccccc2OC)oc1C)S(=O)(=O)c1cccs1` the value was 12.2 µM.
Regarding `CCc1ccccc1-c1cccc(-n2cnnc2)c1`, the AC50 is 19.9 µM.
Take `O=S(=O)(c1cccs1)N1CCCCN2[C@H](C1)[C@@H](c1ccc(/C=C/c3ccccc3)cc1)[C@@H]2CO`: the AC50 is 15.3 µM.
For `CCCCNC(=O)CCC1N=C2c3ccccc3N=C(SCc3ccc(C)cc3C)N2C1=O` (configuration not stated) the value was 25.1 µM; for `Cc1ccccc1S(=O)(=O)N1C[C@@H]2N[C@H](C1)C2c1ccc(-c2cccc(C#N)c2)cc1` (some centres not stated), 15.6 µM and 2.57 µM and 18.7 µM.
As for `Cc1ccc(NC(=O)CN2CCC3(CC2)N=C(c2cccc(Cl)c2)C(=O)N3)cc1`, the figure is 28 µM; as for `COc1ccccc1C1CN(Cc2cccc(O)c2)Cc2ccccc2O1` (configuration not stated), 34.4 µM and 27.5 µM; as for `CS(=O)(=O)N1CC(=O)N2[C@H](CO)[C@@H](c3ccc(C#Cc4ccc(F)cc4)cc3)[C@H]2C1`, 39 µM.
For `O=C(Cc1cccnc1)N1CC(=O)N2[C@H](CO)[C@H](c3ccc(C#CC4CCCCC4)cc3)[C@@H]2C1` the value was 17.9 µM; for `O=C(c1ccc(-n2c(=S)[nH]c3ccccc3c2=O)cc1)N1CCC(O)(c2cccc(C(F)(F)F)c2)CC1`, 38 µM; for `Cc1ccc(NC(=O)N2CCN(Cc3nc(-c4cccc(Cl)c4)oc3C)CC2)c(Cl)c1`, 34.2 µM.
With `COc1ccc2c(c1)NC1(CCN(C(=O)CCc3cc(OC)c(OC)c(OC)c3)CC1)c1cccn1-2`, the AC50 was > 39 µM (inactive).
Consider `Cc1cc(C(F)(F)F)nn1CC(=O)N1CCCC1c1cc(C(C)C)on1` (configuration not stated), for which the AC50 is 32.6 µM.
For `CC(C)c1ccc(S(=O)(=O)N2CCC(C(=O)NCCc3csc(-c4ccccc4)n3)CC2)cc1` the value was 12.7 µM; for `COc1cccc(S(=O)(=O)N2CCCCN3[C@H](CO)[C@H](c4ccc(C#CCC(C)C)cc4)[C@H]3C2)c1`, 16.5 µM and 1.89 µM and 10.4 µM; for `COc1ccc(CNc2nc(SCc3ccc(Cl)cc3)nc3ccccc23)cc1`, 35.5 µM.
Take `CCOc1ccc(-c2nc(CN3CCN(C(=O)Nc4ccccc4)CC3)c(C)o2)cc1`: the AC50 was 16.9 µM.
Regarding `O=C(Nc1ccccc1)c1ncn2c1CN(CC1CC1)S(=O)(=O)c1ccccc1-2`, the AC50 was 32.6 µM.
As for `Cc1cc(C)c(S(=O)(=O)N2CCC3(CC2)NCCN=C3NCc2cc(F)cc(F)c2)cc1C`, the figure is 7.83 µM; as for `O=C(CCC1N=C2c3ccccc3N=C(SCc3ccc(F)cc3)N2C1=O)NCCc1ccccc1` (configuration not stated), 37.8 µM; as for `COc1ccc(S(=O)(=O)N2CCc3c([nH]c4ccccc34)C2c2cc(F)ccc2F)cc1` (configuration not stated), 17.1 µM.
Turning to `Cc1ccccc1-c1ccc(C2[C@H]3CNC[C@@H]2N3Cc2ccc3c(c2)OCO3)cc1` (some centres not stated), the AC50 was > 39 µM (inactive).
For `CO[C@@H]1[C@@H](OC(N)=O)[C@@H](O)[C@H](Oc2ccc3c(O)c(NC(=O)c4ccc(O)c(CC=C(C)C)c4)c(=O)oc3c2C)OC1(C)C` the value was 22.2 µM.
For `COc1ccccc1Cn1ncc2c1CCCC2NC(=O)c1cc(-c2cccs2)no1` (configuration not stated) the value was 14.1 µM; for `CC(C)CC#Cc1ccc([C@H]2[C@@H](CO)N3C(=O)CN(C(=O)c4cccc(F)c4)C[C@H]23)cc1`, 15.5 µM; for `Cc1cccc(-c2nc(CSc3nc4c(c(=O)[nH]3)CN(Cc3ccccc3)CC4)c(C)o2)c1`, > 39 µM (inactive).
For `CCCCOc1ccc2c(=O)c(-c3cc(C(=O)OC)oc3C)c(C(F)(F)F)oc2c1C` the value was 4.38 µM and 7.67 µM; for `Cc1cccc(NC(=O)c2cc(-c3cnc(N4CCOCC4)nc3)cn2CC2CC2)c1`, 22.2 µM.
Take `O=C(Nc1ccc(-c2nc(-c3ccccc3)co2)cc1)c1cccc(Cl)c1`: the AC50 is 35.3 µM.
As for `CC(C)CCN1Cc2c(C(=O)Nc3cccc(F)c3)ncn2-c2ccccc2S1(=O)=O`, the figure is 13 µM; as for `CCc1cnc(N2[C@@H](C#N)[C@@H](c3ccc(C4=CCCCC4)cc3)[C@@H]2CO)s1`, > 20 µM (inactive) and 8.88 µM.
Take `COc1ccc(CC(=O)Nc2ccc3c(c2)CCC(=O)N3C)c(Cl)c1`: the AC50 was 21.2 µM.
Turning to `Cc1ccc(CNC2=NCCNC23CCN(S(=O)(=O)c2cc(C)c(C)cc2C)CC3)cc1`, the AC50 is 4.79 µM.
Consider `COc1cccc(N(Cc2nc(-c3ccc(C)cc3)oc2C)S(=O)(=O)c2ccc(C)cc2)c1`, for which the AC50 was 7.83 µM.
Take `COc1ccc(-c2ccc3nc(CO)[nH]c3c2)cc1Cl`: the AC50 is 16.2 µM.
Take `OC[C@@H]1Nc2ccc(-c3cccc(F)c3)cc2[C@@H]2[C@H]1CCN2Cc1ccc(F)cc1`: the AC50 was 18.5 µM.
For `CC(C)Cc1ccc(S(=O)(=O)N2CCC3(CC2)NCCN=C3NC2CCCC2)cc1` the value was 12.5 µM; for `COc1ccc(-c2nc(NCCc3ccc(OC)c(OC)c3)c3ccccc3n2)cc1`, 17.4 µM; for `O=C(O)CCc1nc2sc3c(c2c(=O)[nH]1)CCCC3`, > 20 µM (inactive).
In the case of `CC(C)Cc1ccc(S(=O)(=O)N2CCC3(CC2)NCCN=C3NCc2ccc(F)cc2)cc1`, the AC50 was 6.29 µM.
On to `Cc1ccc(NC(=O)N2CCN(Cc3nc(-c4cccc(Cl)c4)oc3C)CC2)cc1Cl`, for which the AC50 is 15.7 µM.
As for `COc1ccc(-c2nc3c(s2)CN(S(=O)(=O)c2cc(C)cc(C)c2)CC3)cc1`, the figure is 3.89 µM and 11.8 µM.
Turning to `O=C(Nc1cccc(F)c1)N1CCCCN2[C@@H](CO)[C@@H](c3ccc(C#Cc4cccnc4)cc3)[C@@H]2C1`, the AC50 was > 42 µM (inactive).
For the compound `N#Cc1ccc(-c2ccc([C@@H]3[C@@H]4CN(C(=O)Nc5ccc6c(c5)OCO6)C[C@H]3N4)cc2)cc1`, the AC50 was 17.9 µM.
For the compound `CCOc1ccc(-c2nc(CN3CCN(C(=O)Nc4ccc(Cl)cc4)CC3)c(C)o2)cc1`, the AC50 was 5.17 µM.
As for `CC(C)C#Cc1ccc([C@@H]2[C@@H](CO)N3C(=O)CN(S(=O)(=O)c4ccccc4)C[C@H]23)cc1`, the figure is 19.2 µM; as for `Cc1ccc(-c2nc(CN3CCN(C(=O)Nc4cccc(Cl)c4)CC3)c(C)o2)cc1`, > 39 µM (inactive).
For the compound `Cc1cc(C2CCCN2C(=O)Cn2nc(C(F)(F)F)c3c2CCCC3)no1` (configuration not stated), the AC50 is 34.3 µM.
For `Cc1cccc(CNC2=NCCNC23CCN(S(=O)(=O)c2cc(C)cc(C)c2)CC3)c1` the value was 25.7 µM.
For the compound `CCOc1ccc(-c2nc(CN(c3ccccc3C)S(=O)(=O)c3cccs3)c(C)o2)cc1`, the AC50 is 18.8 µM.
As for `COc1ccc(-c2nc(CN(c3ccc(C)cc3)S(=O)(=O)c3cccs3)c(C)o2)cc1OC`, the figure is 15 µM.
In the case of `COc1ccc(NC(=O)N2CCCCN3[C@H](CO)[C@@H](c4ccc(-c5ccccc5F)cc4)[C@@H]3C2)cc1`, the AC50 is 29.6 µM.
As for `COc1cccc(CNC2=NCCNC23CCN(S(=O)(=O)c2ccc(Cl)s2)CC3)c1`, the AC50 is 11.6 µM.
With `CN1c2ccc(C3=CCCCC3)cc2[C@@H]2[C@@H](CCN2C(=O)c2ccc3c(c2)OCO3)[C@@H]1CO`, the AC50 is 19.3 µM.
On to `CCC[C@@]1(CCc2ccccc2)CC(=O)C([C@H](CC)c2cccc(NS(=O)(=O)c3ccc(C(F)(F)F)cn3)c2)C(=O)O1` (some centres not stated), for which the AC50 is 17.3 µM.
As for `O=S1(=O)c2ccccc2O[C@H]2CCN(Cc3ccc(Cl)cc3)CC[C@H]2N1CC1CC1`, the figure is 32 µM; as for `O=C(c1ccco1)N1CCC2(CC1)Nc1ccc(Cl)cc1-n1cccc12`, 32.1 µM.
As for `O=C(Nc1ccc(Cl)cc1)N1[C@@H]2CNC[C@H]1C2c1ccc(-c2ccccc2)cc1` (some centres not stated), the figure is 2.02 µM and 2.94 µM; as for `CCc1ccc(N2CCC(C(=O)NCCc3c[nH]c4ccc(C)cc34)C2=O)cc1` (configuration not stated), 22.9 µM; as for `Cc1cc(C(C)(C)CC(C)(C)C)ccc1OCCOCC[N+](C)(C)Cc1ccccc1`, 14.9 µM.
Consider `Cc1nc(OCC(=O)NCc2ccc3c(c2)OCO3)c2ccccc2n1`, for which the AC50 is 21.2 µM.
Take `CCN1CCN(Cc2ccc(Nc3nc(-c4ccc(OC)cc4)nc4ccccc34)cc2)CC1`: the AC50 was 11.3 µM and 12.5 µM.
As for `COc1ccc(-c2nc(CN(c3ccccc3OC)S(=O)(=O)c3ccccc3)c(C)o2)cc1OC`, the AC50 is 3.59 µM.
Consider `O=C(NCCc1csc(-c2ccccc2)n1)C1CCN(C(=O)Cc2cccc(F)c2)CC1`, for which the AC50 is 2.76 µM.
For `COc1cccc(C(=O)Nc2ccc3c(c2)C(=O)N(C)[C@H]2CC[C@@H](CC(=O)N[C@@H](C)c4ccccc4)O[C@H]2CO3)c1`, the AC50 was > 39 µM (inactive).
In the case of `COc1ccc(S(=O)(=O)N2CCC(C(=O)NCCc3csc(-c4ccccc4)n3)CC2)cc1`, the AC50 was > 20 µM (inactive).
As for `CCOc1ccc(N(Cc2nc(-c3ccc(OC)cc3)oc2C)S(=O)(=O)c2cccs2)cc1`, the figure is 4.79 µM.
As for `COc1cc(OC)cc(C(=O)N2CCC3(CC2)Nc2cc(OC)ccc2-n2cccc23)c1`, the figure is 30.1 µM; as for `Cc1ccc(-c2nc(CN3CCN(C(=O)Nc4ccc(C)c(F)c4)CC3)c(C)o2)cc1`, 8.58 µM; as for `N#C[C@@H]1[C@@H](c2ccc(C#Cc3cccnc3)cc2)[C@@H](CO)N1C(=O)NC1CCCCC1`, 13.6 µM.
For `Fc1ccccc1CSc1nc(NCc2ccc(Cl)cc2)c2ccccc2n1` the value was 17.4 µM; for `Fc1cccc(CN2C[C@@H]3N[C@H](C2)C3c2ccc(/C=C/c3ccccc3)cc2)c1` (some centres not stated), 12.1 µM and 17.5 µM; for `OC[C@@H]1[C@@H](c2ccc(-c3cccc(F)c3)cc2)[C@@H]2CN(Cc3cncnc3)CCCCN12`, 36.1 µM.
On to `CCOc1ccc(N(Cc2nc(-c3ccc(C)cc3)oc2C)S(=O)(=O)c2ccccc2)cc1`, for which the AC50 is > 39 µM (inactive).
For the compound `CC(C)C#Cc1ccc([C@H]2[C@@H](CO)N3C(=O)CN(S(=O)(=O)c4ccccc4)C[C@H]23)cc1`, the concentration at half-maximal activity (AC50) was 13.6 µM.
In the case of `Cc1ccc(CSC2=Nc3ccccc3C3=NC(CCC(=O)NCCc4ccccc4)C(=O)N23)cc1` (configuration not stated), the AC50 was 30.8 µM.
For the compound `COc1ccc(-c2nc(NCc3cccnc3)c3ccccc3n2)cc1`, the AC50 was 21.7 µM.
As for `COc1ccc(S(=O)(=O)N(Cc2nc(-c3cccc(C)c3)oc2C)c2ccccc2OC)cc1`, the figure is 6 µM; as for `CCCCc1ccc(Nc2ncnc3c2cnn3-c2ccc(C)cc2C)cc1`, 8.05 µM.
For `COc1ccc(-c2nc(NCCCN3CCOCC3)c3ccccc3n2)cc1` the value was 16.6 µM.
